# From patent publication US20110060124A1, “HLA-BINDING PEPTIDES, PRECURSORS THEREOF, DNA FRAGMENTS AND RECOMBINANT VECTORS THAT CODE FOR THOSE PEPTIDE SEQUENCES” (priority 2004, published 2011)
# Peptide text beside a SMILES is read from it.
# Tested on: HLA-A24 type molecule, product of the HLA-A*2402 gene
# Assay: Experiment of binding peptide to HLA-A24 type molecule (C1R-A24 cells, flow cytometry, Kd)
# Design: species or system human
# Details: −log Kd value
# Description: After neutralization, purified β2m was added to C1R-A24 cells, and the obtained product was added to serial dilutions of a peptide, and incubated on ice for 4 hours.
# Subsequently, the MHC-pep count per C1R-A24 cell (proportional to the strength of fluorescence of the above-mentioned fluorescent antibody) was quantitatively measured using an FACScan fluorescence-activated cell sorter (Becton Dickinson Biosciences). A binding dissociation constant Kd value between the HLA-A24 type molecule and the peptide was calculated from the average strength of fluorescence per cell by a published method (Udaka et al., Immunogenetics, 51, 816-828, 2000).
row,SMILES,binding experimental value
1,CC[C@H](C)[C@H](NC(=O)[C@@H]1CCCN1C(=O)[C@H](CC(=O)O)NC(=O)[C@H](Cc1ccccc1)NC(=O)[C@H](CO)NC(=O)[C@H](CC(=O)O)NC(=O)[C@H](CC(C)C)NC(=O)[C@@H](NC(=O)[C@@H](N)C(C)C)[C@@H](C)CC)C(=O)O [SEQ ID NO: 2] (H-VILDSFDPI-OH; N-terminus and C-terminus assumed),5.324
2,CC[C@H](C)[C@H](N)C(=O)N[C@H](C(=O)N[C@@H](Cc1ccc(O)cc1)C(=O)N[C@@H](CO)C(=O)N[C@H](C(=O)N[C@@H](Cc1ccc(O)cc1)C(=O)N[C@@H](CS)C(=O)N[C@@H](CCCCN)C(=O)N[C@@H](Cc1ccccc1)C(=O)O)[C@@H](C)O)[C@@H](C)O [SEQ ID NO: 40] (H-ITYSTYCKF-OH; N-terminus and C-terminus assumed),6.975
3,CC[C@H](C)[C@H](N)C(=O)N[C@H](C(=O)N[C@@H](Cc1ccc(O)cc1)C(=O)N[C@@H](CO)C(=O)N[C@H](C(=O)N[C@@H](Cc1ccc(O)cc1)C(=O)NCC(=O)N[C@@H](CCCCN)C(=O)N[C@@H](Cc1ccccc1)C(=O)O)[C@@H](C)O)[C@@H](C)O [SEQ ID NO: 107] (H-ITYSTYGKF-OH; N-terminus and C-terminus assumed),6.374
